Assay results: the NIST ThermoML archive (doi:10.1016/j.jct.2018.11.014)

Test: molar heat capacity at constant pressure
Conditions: 101.33 kPa, Crystal, Vacuum adiabatic calorimetry

O=C(CO)[C@@H](O)[C@@H](O)[C@H](O)CO [D-(-)-tagatose]
Conditions	molar heat capacity at constant pressure [J/K/mol]
10 K	0.94
14.02 K	2.674
14.41 K	2.87
14.81 K	3.123
15.25 K	3.307
15.73 K	3.601
16.23 K	3.917
16.72 K	4.241
17.21 K	4.591
17.74 K	4.922
18.26 K	5.33
18.79 K	5.733
19.32 K	6.103
19.88 K	6.523
20 K	6.61
20.46 K	6.946
21.02 K	7.413
21.59 K	7.933
22.17 K	8.327
22.74 K	8.872
23.29 K	9.326
23.86 K	9.837
24.43 K	10.34
24.96 K	10.79
25.5 K	11.35
26.05 K	11.75
26.63 K	12.36
27.21 K	12.84
27.8 K	13.39
28.43 K	14.04
29.08 K	14.61
29.7 K	15.2
30 K	15.48
30.32 K	15.75
30.93 K	16.36
31.54 K	16.95
32.18 K	17.49
32.85 K	18.2
33.51 K	18.79
34.17 K	19.45
34.85 K	20.14
35.56 K	20.8
36.25 K	21.42
36.92 K	22.12
37.6 K	22.72
38.32 K	23.45
39.06 K	24.19
39.8 K	24.86
40 K	25.07
40.56 K	25.59
41.34 K	26.39
42.12 K	27.17
42.9 K	27.84
43.73 K	28.66
44.59 K	29.45
45.47 K	30.31
46.33 K	31.15
47.17 K	31.93
48.01 K	32.72
48.86 K	33.49
49.73 K	34.49
50 K	34.58
50.59 K	35.1
51.44 K	35.9
52.28 K	36.7
53.12 K	37.43
53.94 K	38.19
54.73 K	38.96
55.51 K	39.6
56.29 K	40.34
57.09 K	41.06
57.89 K	41.8
58.7 K	42.51
59.51 K	43.28
60 K	43.72
60.35 K	44.06
61.19 K	44.77
62.02 K	45.55
62.84 K	46.28
63.66 K	46.99
64.47 K	47.71
65.28 K	48.44
66.09 K	49.12
66.9 K	49.84
67.72 K	50.53
68.52 K	51.3
69.3 K	51.99
70 K	52.55
70.08 K	52.63
70.85 K	53.29
71.66 K	54
72.51 K	54.75
73.34 K	55.43
74.17 K	56.15
74.99 K	56.78
75.84 K	57.55
76.73 K	58.37
77.61 K	59.05
78.48 K	59.83
79.34 K	60.58
80 K	61.11
80.24 K	61.32
81.18 K	62.13
82.13 K	62.93
83.07 K	63.68
84.01 K	64.47
85 K	65.34
86.03 K	66.11
87.06 K	66.91
88.1 K	67.79
89.12 K	68.69
90 K	69.42
90.18 K	69.57
91.27 K	70.49
92.35 K	71.33
93.42 K	72.22
94.47 K	73.05
95.56 K	73.96
96.68 K	74.84
97.79 K	75.75
98.88 K	76.69
99.96 K	77.46
100 K	77.52
101.1 K	78.37
102.28 K	79.32
103.46 K	80.27
104.64 K	81.16
105.83 K	82.14
107.05 K	83.09
108.3 K	84.09
109.54 K	85.07
110 K	85.43
110.79 K	86.05
112.05 K	87.01
113.37 K	88.06
114.74 K	89.11
116.09 K	90.16
117.44 K	91.23
118.77 K	92.2
120 K	93.18
120.13 K	93.3
121.52 K	94.39
122.9 K	95.4
124.27 K	96.48
125.63 K	97.47
127.06 K	98.59
128.55 K	99.75
130 K	100.79
130.03 K	100.83
131.5 K	101.97
132.96 K	103.07
134.45 K	104.19
135.97 K	105.29
137.47 K	106.45
138.97 K	107.56
140 K	108.3
140.45 K	108.68
141.96 K	109.8
143.5 K	110.93
145.03 K	112.09
146.55 K	113.1
148.1 K	114.27
149.72 K	115.49
150 K	115.72
151.43 K	116.75
153.17 K	118.02
154.9 K	119.31
156.62 K	120.56
158.37 K	121.84
160 K	123.1
160.14 K	123.23
161.94 K	124.54
163.76 K	125.92
165.57 K	127.19
167.41 K	128.53
169.28 K	129.9
170 K	130.45
171.14 K	131.27
172.99 K	132.6
174.82 K	134.01
176.68 K	135.37
178.57 K	136.72
180 K	137.8
180.49 K	138.21
182.43 K	139.62
184.37 K	141.02
186.33 K	142.53
188.32 K	143.96
190 K	145.19
190.29 K	145.43
192.26 K	146.89
194.22 K	148.2
196.2 K	149.78
198.21 K	151.32
200 K	152.62
200.21 K	152.77
202.19 K	154.24
204.24 K	155.8
206.37 K	157.27
208.53 K	159.03
210 K	160.09
210.68 K	160.61
212.82 K	162.18
214.94 K	163.84
217.1 K	165.39
219.28 K	167.07
220 K	167.61
221.45 K	168.71
223.6 K	170.37
225.82 K	171.99
228.13 K	173.74
230 K	175.16
230.48 K	175.53
232.81 K	177.33
235.13 K	179.15
237.48 K	180.87
239.92 K	182.64
240 K	182.74
242.39 K	184.45
244.84 K	186.37
247.28 K	188.22
249.7 K	190.03
250 K	190.36
252.15 K	192.06
254.63 K	194.03
257.1 K	195.94
259.55 K	197.81
260 K	198.11
261.98 K	199.73
264.45 K	201.55
266.94 K	203.51
269.42 K	205.41
270 K	206.1
271.88 K	207.63
274.33 K	209.55
276.81 K	211.93
279.31 K	213.91
280 K	214.24
281.79 K	215.77
284.26 K	217.69
286.73 K	219.65
289.21 K	221.51
290 K	222.17
291.73 K	223.31
294.22 K	225.32
296.71 K	227.47
298.15 K	228.55
299.18 K	229.22
300 K	229.99
301.76 K	231.28
304.46 K	233.53
307.14 K	235.53
309.81 K	237.67
310 K	237.81
312.46 K	239.92
315.14 K	241.99
317.84 K	244.2
320 K	245.73
320.53 K	246.19
323.2 K	248.11
325.86 K	250.28
328.54 K	252.68
330 K	253.86
331.25 K	254.96
